Data: article PMC2784364, “VX-166: a novel potent small molecule caspase inhibitor as a potential therapy for sepsis” (Critical Care, 2009)
Where two headings read alike, the source gives them in different places.

Tests used:
[1] = test system: IL-1β release from peripheral blood mononuclear cells; test: IL-1β release from LPS-treated PBMC; assay type: cell-based
Protocol: Peripheral blood mononuclear cells (PBMC) from healthy donors were isolated by Ficoll-Paque gradient centrifugation from buffy coats obtained from the National Blood Transfusion Service (Bristol, UK). For IL-1β release, 5 × 10^5 cells/ml were then stimulated with 50 ng/ml lipopolysaccharide (LPS) from Escherichia coli (Sigma-Aldrich Ltd., Poole, UK) in the presence or absence of VX-166 and incubated for 18 hours. Secretion of IL-1β into the supernatant was determined by ELISA (R&D Systems, Abingdon, UK) following the manufacturer's instructions. For IL-18 release, 7.5 × 10^5 cells/ml were stimulated with 6.25 × 10^-4% (w/v) Staphylococcus aureus cell suspension (SAC; Sigma-Aldrich Ltd., Poole, UK) in the presence or absence of VX-166 and incubated overnight. The IL-18 content in the supernatants was quantified by ELISA (Caltag-MedSystems Ltd., Buckingham, UK) following the manufacturer's instructions. In both assays PBMC viability was assessed after the 18 hours incubation time using MTS assay (Promega UK Ltd., Southampton, UK) to ensure that the reduction in cytokine release was not caused by a cytotoxic effect of the compound.

Sprague-Dawley rats [2] = test: Caecal ligation and puncture in the rat, survival; assay type: in vivo; conditions: rat CLP; for survival at day 10: control 40%
Protocol: (§1) CLP studies were performed in accordance with the National Institutes of Health guidelines for the use of experimental animals and were approved by the Institutional Animal Care and Use Committee of the Feinstein Institute for Medical Research. Adult male Sprague-Dawley rats (weighing 275 to 325 g, Charles River Laboratories, Wilmington, MA, USA) were fasted overnight then anaesthetised with isoflurane. The caecum was exposed via a 2 cm midline incision. It was ligated just distal to the ileocaecal valve, then punctured twice with an 18-gauge needle and gently squeezed to release a small amount of faecal material to ensure patency of the perforation sites before the abdominal incision was closed. Sham-operated rats underwent the same procedure with the exception that the caecum was neither ligated nor punctured. Animals received subcutaneous fluids (30 ml/kg saline) immediately after the procedure. No antibiotics were administered. In the 7 and 10 day survival studies animals were re-anaesthetised 20 hours after CLP, the perforated caecum was removed and the abdominal cavity washed twice with 40 ml of warm, sterilised saline. The abdominal cavity was closed, anaesthetics withdrawn and rats returned to their cages where they were allowed free access to food and water. In the 20 hour endpoint study the caecum was not removed. In this study blood samples were collected by cardiac puncture under terminal anaesthesia into heparinised syringes for the subsequent measurement of IL-1β and bacterial endotoxin, while the thymus was removed for analysis of thymocyte apoptosis.
Alzet® mini-osmotic pumps (Durect Corporation, Cupertino, CA, USA) were used for continuous delivery of VX-166 or vehicle (25% dimethyl sulphoxide: 75% propylene glycol). Pumps with a 2 ml reservoir capacity and a 10 μl//h delivery rate were used in all studies. These pumps are designed to deliver for seven days and so would have expired two to three days before the end of the 10 day survival studies. The mini-osmotic pumps were filled with VX-166 (5 to 25 mg/ml or vehicle) and primed overnight at 37°C prior to subcutaneous implantation in anaesthetised rats. The 25 mg/ml concentration of VX-166 equates to an approximate dose of 0.83 mg/kg/h for a 300 g rat. The pumps were implanted immediately following CLP, except in the delayed onset of treatment study in which pumps were implanted either immediately following CLP (0 hour) or 3 or 8 hours following CLP. Sham-operated rats were implanted with vehicle filled mini-osmotic pumps.

Jurkat cells [3] = test: Anti-Fas induced apoptosis in Jurkat cells, Annexin V; assay type: cell-based, human; conditions: Anti-Fas, Human Jurkat cell line/Annexin V, 18 hours, n = 4; read-out: IC50, inhibition of apoptosis
Protocol: (§2) Jurkat cells were obtained from LGC Standards (Teddington, UK) and were grown in RPMI 1640, 10% FCS, 2 mM L-glutamine, 100 U/ml penicillin and 0.1 mg/ml streptomycin (all from Sigma Aldrich Ltd., Poole, UK) at 37°C in 5% CO2/95% humidity. Receptor- or stress-mediated apoptosis (2 × 10^5 cells/ml) was induced by addition of either anti-Fas antibody CH-11 (10 ng/ml, Millipore UK Ltd., Watford, UK), TNF-α (20 ng/ml, R&D Systems, Abingdon, UK) with cycloheximide (112 ng/ml, Sigma Aldrich Ltd., Poole, UK) or staurosporine (350 ng/ml, Sigma Aldrich Ltd., Poole, UK). VX-166 was diluted into DMSO (10 mM), further diluted in media and added at a range of concentrations. Cells were then incubated for 18 hours. Apoptotic cells were then labelled with Cy5-conjugated Annexin-V (BD Biosciences, Oxford, UK) and detected using a FMAT™ 8100 Fluorimetric Microassay Technology Reader (Applied Biosystems, Warrington, UK). For the experiments using anti-Fas antibody, apoptosis was additionally measured using a Cell Death Detection ELISA kit (Roche Diagnostics Ltd., Lewes, UK) following the manufacturer's instructions.

Sprague-Dawley rats [4] = test: CLP rat, thymus weight; assay type: in vivo; conditions: 25 mg/ml pump, P < 0.01
Protocol: as §1, with “In this study blood samples were collected by cardiac puncture under terminal anaesthesia into heparinised syringes for the subsequent measurement of IL-1β and bacterial endotoxin, while the thymus was removed for analysis of thymocyte apoptosis.” left out

Jurkat cells [5] = test: Anti-Fas induced apoptosis in Jurkat cells, DNA fragmentation (Cell Death Detection ELISA); assay type: cell-based; conditions: Human Jurkat cell line/DNA fragmentation, n = 4, read-out: IC50, inhibition of apoptosis
Protocol: as §2

CCC(C(=O)NC(CC(=O)O)C(=O)COc1c(F)c(F)cc(F)c1F)n1cccc(NC(=O)OC)c1=O (stereo not shown) [VX-166]
IC50 ([1]; Homo sapiens, PBMC, 18 h, n = 4, read-out: IC50 ± SD, inhibition of IL-1β release): < 500 nM | IC50 ([1]; LPS-treated human PBMC, 18 hours, n = 4, read-out: IC50 ± SD, inhibition of IL-1β release): 260 ± 120 nM | survival over 10 days compared with vehicle control, second study (Sprague-Dawley rats [2]; 25 mg/ml mini-osmotic pump immediately after CLP, n = 16): improved survival | survival at day 7 (Sprague-Dawley rats [2]; 25 mg/ml mini-osmotic pump implanted immediately following CLP, n = 12, control 25%): 67% | survival at day 10 (Sprague-Dawley rats [2]; 25 mg/ml pump started 0 hours after CLP, n = 12, P = 0.026): 83% | survival at day 10 (Sprague-Dawley rats [2]; 25 mg/ml pump started 3 hours after CLP, n = 12, P = 0.009): 92% | survival at day 10 (Sprague-Dawley rats [2]; 25 mg/ml pump started 8 hours after CLP, n = 12, P = 0.19): 66% | IC50 (Jurkat cells [3]): 27 ± 9 nM | thymus weight of surviving rats on day 10 vs control (Sprague-Dawley rats [4]): significantly higher weight | IC50 (Jurkat cells [5]): 45 ± 7 nM
